Test systems include HCT-116 colon; HOP-62 NSCLC; HOP-92 NSCLC; MDA-MB-435; NCI-H226 lung; SF-295 CNS; SW-620 colon; U251 CNS; SF-539 CNS; HS 578T breast.
What all share (test): NCI tumour cell line growth inhibition, 48 h

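Cultured in 96-well plates, cells were exposed to test compound for 48 hours across five concentrations. The concentration for 50% growth inhibition is given as GI50. Definition used: TGI = concentration required for complete inhibition of growth.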 A value given as a limit tells only on which side of the number the result lay.

As for `COc1cc(C2SCCCCCCCCCCSC(c3ccc(O)c(OC)c3)SCCCCCCCCCCS2)ccc1O` (stereo not drawn), the TGI with HCT-116 colon, in the experiment with HOP-62 NSCLC, in the experiment with HOP-92 NSCLC, with MDA-MB-435, in the experiment with NCI-H226 lung and with SF-295 CNS was above 100 µM in each case. Also, the TGI in the experiment on SW-620 colon and in the experiment with U251 CNS was above 100 µM throughout.

In the case of `CCCCCCCCOC(=O)CC[C@@H](C)[C@H]1CC[C@H]2[C@@H]3[C@H](OC(=O)CCN)C[C@@H]4C[C@H](OC(=O)CCN)CC[C@]4(C)[C@H]3C[C@H](OC(=O)CCN)[C@]12C`, the GI50 in the experiment on HCT-116 colon is 2430 nM; in the experiment on HOP-62 NSCLC it was 2.71 µM; in the experiment on HOP-92 NSCLC, 2290 nM; in the experiment with MDA-MB-435, 3.96 µM; in the experiment on NCI-H226 lung, 13 µM; in the experiment on SF-295 CNS it was 3.51 µM. Also, the GI50 in the experiment on SF-539 CNS was 3.01 µM; in the experiment with SW-620 colon it was 1950 nM; in the experiment with U251 CNS it was 1950 nM. Also, the TGI with HCT-116 colon amounted to 5.43 µM; with HOP-62 NSCLC, 7.14 µM; with HOP-92 NSCLC it was 6.74 µM; in the experiment on MDA-MB-435, 18.4 µM; with NCI-H226 lung, 44.8 µM; in the experiment with SF-295 CNS it was 15.9 µM. Besides, the values for the TGI with SF-539 CNS, with SW-620 colon and in the experiment on U251 CNS were 8.77 µM, 3.93 µM and 3.61 µM, respectively.

`COC12CCC(=O)C=C1c1ccccc1N2C(C)=O` (stereo not drawn): the TGI in the experiment with HCT-116 colon, in the experiment on HOP-62 NSCLC, with SF-295 CNS, in the experiment on SF-539 CNS, in the experiment on SW-620 colon and with U251 CNS was above 100 µM throughout.

As to `COc1ccc(NC(=O)CC2SC(=Nc3ccccc3C)NC2=O)c([N+](=O)[O-])c1` (stereo not drawn), the TGI in the experiment on HCT-116 colon, in the experiment on HOP-62 NSCLC, with HOP-92 NSCLC, in the experiment with NCI-H226 lung, in the experiment on SF-295 CNS and in the experiment on SF-539 CNS was above 100 µM throughout. Besides, the TGI in the experiment on SW-620 colon and with U251 CNS was above 100 µM in each case.

On to `CCCNC(=O)C1C(=O)C(=O)N(CCC)C1=O` (stereo not drawn), for which the TGI with HCT-116 colon, in the experiment on HOP-62 NSCLC, with HOP-92 NSCLC, with SF-539 CNS, in the experiment on SW-620 colon and with U251 CNS was above 100 µM in each case.

As for `O=C(/C=C/c1ccccc1)C(Br)C(Br)c1ccccc1` (stereo not drawn), the GI50 is 200 nM with HCT-116 colon; 4.06 µM in the experiment on HOP-62 NSCLC; 2.36 µM with HS 578T breast; 1.49 µM in the experiment on MDA-MB-435; 2.95 µM in the experiment with SF-295 CNS; 1.87 µM in the experiment on SF-539 CNS. Further, the GI50 with SW-620 colon is 402 nM; in the experiment with U251 CNS, 1680 nM. Besides, the TGI was determined as 0.43 µM in the experiment on HCT-116 colon; 14.9 µM in the experiment with HOP-62 NSCLC; 7.7 µM with HS 578T breast; 3.08 µM in the experiment on MDA-MB-435; 10.5 µM with SF-295 CNS; 3.86 µM in the experiment on SF-539 CNS. Also, the TGI in the experiment with SW-620 colon is 1.59 µM; with U251 CNS, 3.81 µM.

As to `O=S(=O)(NC1=NCCN1C(=S)SN1CCn2c1nsc2=S)c1cccc2ccccc12`, the GI50 is 14800 nM in the experiment on HCT-116 colon; 20.6 µM in the experiment with HOP-62 NSCLC; 25.5 µM in the experiment on HS 578T breast; 17.4 µM in the experiment on MDA-MB-435; 30.6 µM in the experiment on NCI-H226 lung; 18.4 µM in the experiment with SF-295 CNS. The GI50 with SF-539 CNS is 21.1 µM; in the experiment on SW-620 colon, 33200 nM; in the experiment with U251 CNS, 20600 nM. The TGI with HCT-116 colon was 37.2 µM; in the experiment on HOP-62 NSCLC, 54.3 µM; in the experiment on HS 578T breast it was above 100 µM; with MDA-MB-435 it was 39.9 µM; in the experiment with NCI-H226 lung, above 100 µM; in the experiment on SF-295 CNS, 71.1 µM. Besides, the TGI was 46 µM in the experiment with SF-539 CNS, above 100 µM in the experiment with SW-620 colon and 49.9 µM with U251 CNS.

On to `CCNC(=O)COc1ccc(Br)cc1Br`, for which the TGI with HCT-116 colon, in the experiment with HOP-62 NSCLC, in the experiment on HOP-92 NSCLC, in the experiment on NCI-H226 lung, in the experiment on SF-295 CNS and in the experiment on SF-539 CNS was above 100 µM in each case. The TGI in the experiment on SW-620 colon and in the experiment with U251 CNS was above 100 µM each time.

In the case of `O=c1/c(=C/c2ccccc2[N+](=O)[O-])sc2nc3ccccc3n12`, the TGI in the experiment on HCT-116 colon is above 46.4 µM; in the experiment on HOP-62 NSCLC, above 46.4 µM; in the experiment with HOP-92 NSCLC it was above 46.4 µM; in the experiment on NCI-H226 lung it was above 46.4 µM; with SF-295 CNS, 41.4 µM; in the experiment with SF-539 CNS it was 37.9 µM. Also, the TGI with SW-620 colon is 55.6 µM; in the experiment on U251 CNS, 41.9 µM.

On to `C#Cc1cccc(N2C(=O)c3c(c(-c4ccccc4)c(-c4ccc(Cc5ccc(-c6c(-c7ccccc7)c7c(c(-c8ccccc8)c6-c6ccccc6)C(=O)N(c6cccc(C#C)c6)C7=O)cc5)cc4)c(-c4ccccc4)c3-c3ccccc3)C2=O)c1`, for which the TGI with HCT-116 colon was above 100 µM; in the experiment on HOP-62 NSCLC, above 100 µM; in the experiment on HOP-92 NSCLC, 29 µM; in the experiment on SF-295 CNS, above 100 µM; in the experiment on SF-539 CNS, above 100 µM; in the experiment on SW-620 colon, above 100 µM. The compound also returned a TGI in the experiment with U251 CNS above 100 µM.

With `CC1=CC(=O)CC2(C)CC[C@@H]3C[C@]12OC3(C)C` (stereo partly drawn), the TGI in the experiment on HCT-116 colon, in the experiment on HOP-62 NSCLC, in the experiment with HOP-92 NSCLC, in the experiment on NCI-H226 lung, in the experiment with SF-295 CNS and in the experiment with SF-539 CNS was above 100 µM each time. Further, the TGI with SW-620 colon and in the experiment on U251 CNS was above 100 µM each time.

Take `O=C(CCC(=O)Nc1ccc(Cl)c(Cl)c1)CC(=O)c1ccc(Br)cc1`: the TGI with HCT-116 colon, in the experiment on HOP-92 NSCLC, in the experiment on NCI-H226 lung, with SF-539 CNS, in the experiment on SW-620 colon and in the experiment with U251 CNS was above 100 µM throughout.

Turning to `CC1=C[C@H]2c3c([nH]c4ccccc34)C(c3c[nH]c4ccccc34)[C@H]2CC1` (stereo partly drawn), the TGI with HCT-116 colon was found to be 11.9 µM; in the experiment with HOP-92 NSCLC, 5.34 µM; in the experiment on NCI-H226 lung it was 27.7 µM; with SF-539 CNS it was 25.6 µM; with SW-620 colon, 24.1 µM; in the experiment on U251 CNS, 16.3 µM.
